#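 Five compound concentrations were applied to cells in 96-well plates for 48 hours; endpoints were derived by simple linear interpolation of the resulting dose-response curve. GI50 marks 50% less growth.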 Active and inactive are the calls of the source. No stated cut-off is given here; in the data, active = GI50 up to about 1.1 µM and inactive = higher.
# Assays:
# Experiment in all cases: NCI anticancer screen, dose series, 48 h
# SK-MEL-5 = tested on: SK-MEL-5
# MDA-MB-231 = tested on: MDA-MB-231
# SR = tested on: SR
# COLO 205 = tested on: COLO 205
# KM12 = tested on: KM12
# SK-OV-3 = tested on: SK-OV-3
# HCT-15 = tested on: HCT-15
# IGROV-1 = tested on: IGROV-1
# OVCAR-8 = tested on: OVCAR-8
# SK-MEL-28 = tested on: SK-MEL-28
# SF-295 = tested on: SF-295
# SNB-19 = tested on: SNB-19
# UACC-257 = tested on: UACC-257
# Hs-578T = tested on: Hs-578T
# 786-0 = tested on: 786-0
# T47D = tested on: T47D
# MOLT-4 = tested on: MOLT-4
# NCI-H23 = tested on: NCI-H23
# SNB-75 = tested on: SNB-75
# U-251 = tested on: U-251
SMILES,GI50 (SK-MEL-5),GI50 (MDA-MB-231),GI50 (SR),GI50 (COLO 205),GI50 (KM12),GI50 (SK-OV-3),GI50 (HCT-15),GI50 (IGROV-1),GI50 (OVCAR-8),GI50 (SK-MEL-28),GI50 (SF-295),GI50 (SNB-19),GI50 (UACC-257),GI50 (Hs-578T),GI50 (786-0),GI50 (T47D),GI50 (MOLT-4),GI50 (NCI-H23),GI50 (SNB-75),GI50 (U-251)
COc1ccc(NCc2cnc3nc(N)nc(N)c3c2C)cc1,0.419 µM (active),0.121 µM (active),0.449 µM (active),9.35 µM (inactive),6.41 µM (inactive),4.34 µM (inactive),0.443 µM,0.771 µM (active),0.167 µM (active),8.51 µM (inactive),0.41 µM (active),21 µM (inactive),2.58 µM (inactive),59.8 µM (inactive),0.254 µM (active),15 µM (inactive),0.493 µM (active),0.628 µM (active),52 µM (inactive),0.555 µM (active)
N#CCCC(CC#N)N1CCN(CCO)CC1 (stereo not given),> 100 µM (inactive),> 100 µM (inactive),> 100 µM (inactive),> 100 µM (inactive),> 100 µM (inactive),> 100 µM (inactive),> 100 µM,> 100 µM (inactive),> 100 µM (inactive),> 100 µM (inactive),> 100 µM (inactive),> 100 µM (inactive),> 100 µM (inactive),61.4 µM (inactive),> 100 µM (inactive),> 100 µM (inactive),> 100 µM (inactive),> 100 µM (inactive),> 100 µM (inactive),> 100 µM (inactive)
